Results published in patent US5118678A, “Carbamates of rapamycin” (American Home Products Corporation, priority 1991, dated 1992).
Read-outs that look alike come from different tables or passages of the source.

Experiments:
[1] = test system: popliteal lymph node, mixed lymphocyte reaction; assay: popliteal lymph node (PLN) test procedure (in vivo mixed lymphocyte reaction); design: species or system C3H mice (recipients), BALB/c donors; conditions: for PLN (ratio): p.o. daily Day 0 to Day 4, rapamycin = 1.00
Procedure: (§1) Immunosuppressive activity was evaluated in an in vitro standard pharmacological test procedure to measure lymphocyte proliferation (LAF) and in two in vivo standard pharmacological test procedures. The first in vivo procedure was a popliteal lymph node (PLN) test procedure which measured the effect of compounds of this invention on a mixed lymphocyte reaction and the second in vivo procedure evaluated the survival time of a pinch skin graft.
A mixed lymphocyte reaction (MLR) occurs when lymphoid cells from genetically distinct animals are combined in tissue culture. Each stimulates the other to undergo blast transformation which results in increased DNA synthesis that can be quantified by the incorporation of tritiated thymidine. Since stimulating a MLR is a function of disparity at Major Histocompatibility antigens, an in vivo popliteal lymph node (PLN) test procedure closely correlates to host vs. graft disease. Briefly, irradiated spleen cells from BALB/c donors are injected into the right hind foot pad of recipient C3H mice. The drug is given daily, p.o. from Day 0 to Day 4. On Day 3 and Day 4, tritiated thymidine is given i.p., b.i.d. On Day 5, the hind popliteal lymph nodes are removed and dissolved, and radioactivity counted. The corresponding left PLN serves as the control for the PLN from the injected hind foot. Percent suppression is calculated using the non-drug treated animals as allogenic control. […] Results are expressed by the following ratio: [formula]

[2] = test system: pinch skin graft from male DBA/2 donors transplanted to male BALB/c recipients; assay: survival time of pinch skin graft; format: in vivo, DBA/2 donors (mice); conditions: intraperitoneally; mean ± S.D.; untreated grafts typically rejected within 6-7 days
Procedure: as §1
The second in vivo test procedure is designed to determine the survival time of pinch skin graft from male DBA/2 donors transplanted to male BALB/c recipients. The method is adapted from Billingham R. E. and Medawar P. B., J. Exp. Biol. 28:385-402, (1951). Briefly, a pinch skin graft from the donor is grafted on the dorsum of the recipient as a homograft, and an autograft is used as control in the same region. […] Untreated recipients serve as rejection control. The graft is monitored daily and observations are recorded until the graft becomes dry and forms a blackened scab. This is considered as the rejection day. The mean graft survival time (number of days ±S.D.) of the drug treatment group is compared with the control group.

[3] = test system: cells from the thymus of normal BALB/c mice (lymphocyte proliferation); assay: comitogen-induced thymocyte proliferation procedure (LAF); format: cell-based; conditions: Mus musculus; for IC50: read-out: LAF IC50
Procedure: as §1
Briefly, cells from the thymus of normal BALB/c mice are cultured for 72 hours with PHA and IL-1 and pulsed with tritiated thymidine during the last six hours. […] Cells are harvested and incorporated radioactivity is determined. Inhibition of lymphoproliferation is assessed as percent change in counts per minute from non-drug treated controls. The results are expressed as an IC50. [formula]

[4] = FASEB 1989; Lancet 1978; cited from earlier work
[5] = test system: experimental allergic encephalomyelitis model, a model for multiple sclerosis; conditions: R. Martel et al. 1977; cited from earlier work
IgE-like antibodies = conditions: R. Martel et al. 1977; cited from earlier work
[6] = thymocytes cultured 72 h with PHA and IL-1, tritiated thymidine incorporation, vs non-drug treated controls

| SMILES | PLN (ratio) [1] | Skin Graft (mean graft survival time, days + SD) [2] | IC50 [3, 6] | further results |
| --- | --- | --- | --- | --- |
| CO[C@H]1C[C@@H]2CC[C@@H](C)[C@@](O)(O2)C(=O)C(=O)N2CCCC[C@H]2C(=O)O[C@H]([C@H](C)C[C@@H]2CC[C@@H](OC(=O)Nc3ccc(F)cc3)[C@H](OC)C2)CC(=O)[C@H](C)/C=C(\C)[C@@H](O)[C@@H](OC)C(=O)[C@H](C)C[C@H](C)/C=C/C=C/C=C/1C [Example 1, Rapamycin 42-ester with (4-fluorophenyl)carbamic acid] | 0.71 ratio | 8.5 ± 1.6 days | 8.6 nM | – |
| CO[C@H]1C[C@@H]2CC[C@@H](C)[C@@](O)(O2)C(=O)C(=O)N2CCCC[C@H]2C(=O)O[C@H]([C@H](C)C[C@@H]2CC[C@@H](OC(=O)Nc3ccccc3)[C@H](OC)C2)CC(=O)[C@H](C)/C=C(\C)[C@@H](O)[C@@H](OC)C(=O)[C@H](C)C[C@H](C)/C=C/C=C/C=C/1C [Example 2, Rapamycin 42-ester with phenylcarbamic acid] | 0.47 ratio | 8.5 ± 1.2 days | 3.9 nM | – |
| CO[C@H]1C[C@@H]2CC[C@@H](C)[C@@](O)(O2)C(=O)C(=O)N2CCCC[C@H]2C(=O)O[C@H]([C@H](C)C[C@@H]2CC[C@@H](OC(=O)Nc3ccc(C(F)(F)F)cc3)[C@H](OC)C2)CC(=O)[C@H](C)/C=C(\C)[C@@H](OC(=O)Nc2ccc(C(F)(F)F)cc2)[C@@H](OC)C(=O)[C@H](C)C[C@H](C)/C=C/C=C/C=C/1C [Example 3, Rapamycin-31,42-diester with [4-(trifluoromethyl)phenyl]carbamic acid] | – | – | > 1000 nM | – |
| CO[C@H]1C[C@@H]2CC[C@@H](C)[C@@](O)(O2)C(=O)C(=O)N2CCCC[C@H]2C(=O)O[C@H]([C@H](C)C[C@@H]2CC[C@@H](OC(=O)Nc3ccc(C(F)(F)F)cc3)[C@H](OC)C2)CC(=O)[C@H](C)/C=C(\C)[C@@H](O)[C@@H](OC)C(=O)[C@H](C)C[C@H](C)/C=C/C=C/C=C/1C [Example 4, Rapamycin-42-ester with [4-(trifluoromethyl)phenyl]carbamic acid] | 0.90 ratio | – | 57.9 nM | – |
| CO[C@H]1C[C@@H]2CC[C@@H](C)[C@@](O)(O2)C(=O)C(=O)N2CCCC[C@H]2C(=O)O[C@H]([C@H](C)C[C@@H]2CC[C@@H](OC(=O)Nc3ccc([N+](=O)[O-])cc3)[C@H](OC)C2)CC(=O)[C@H](C)/C=C(\C)[C@@H](OC(=O)Nc2ccc([N+](=O)[O-])cc2)[C@@H](OC)C(=O)[C@H](C)C[C@H](C)/C=C/C=C/C=C/1C [Example 5, Rapamycin-31,42-diester with (4-nitrophenyl)carbamic acid] | – | – | – | inhibition at 0.1 µM ([3]; read-out: LAF percent inhibition): 3% |
| CO[C@H]1C[C@@H]2CC[C@@H](C)[C@@](O)(O2)C(=O)C(=O)N2CCCC[C@H]2C(=O)O[C@H]([C@H](C)C[C@@H]2CC[C@@H](OC(=O)Nc3ccc([N+](=O)[O-])cc3)[C@H](OC)C2)CC(=O)[C@H](C)/C=C(\C)[C@@H](O)[C@@H](OC)C(=O)[C@H](C)C[C@H](C)/C=C/C=C/C=C/1C [Example 6, Rapamycin-42-ester with (4-nitrophenyl)carbamic acid] | 0.25 ratio | 8.3 ± 1.0 days | 10.4 nM | – |
| CO[C@H]1C[C@@H]2CC[C@@H](C)[C@@](O)(O2)C(=O)C(=O)N2CCCC[C@H]2C(=O)O[C@H]([C@H](C)C[C@@H]2CC[C@@H](OC(=O)Nc3ccc(C)cc3)[C@H](OC)C2)CC(=O)[C@H](C)/C=C(\C)[C@@H](O)[C@@H](OC)C(=O)[C@H](C)C[C@H](C)/C=C/C=C/C=C/1C [Example 8, Rapamycin-42-ester with (4-methylphenyl)carbamic acid] | – | 8.8 ± 1.3 days | 7.4 nM | – |
| CO[C@H]1C[C@@H]2CC[C@@H](C)[C@@](O)(O2)C(=O)C(=O)N2CCCC[C@H]2C(=O)O[C@H]([C@H](C)C[C@@H]2CC[C@@H](OC(=O)Nc3ccc(F)cc3F)[C@H](OC)C2)CC(=O)[C@H](C)/C=C(\C)[C@@H](O)[C@@H](OC)C(=O)[C@H](C)C[C@H](C)/C=C/C=C/C=C/1C [Example 9, Rapamycin-42-ester with (2,4-difluorophenyl)carbamic acid] | 0.72 ratio | 8.0 ± 1.7 days | 8.7 nM | – |
| CO[C@H]1C[C@@H]2CC[C@@H](C)[C@@](O)(O2)C(=O)C(=O)N2CCCC[C@H]2C(=O)O[C@H]([C@H](C)C[C@@H]2CC[C@@H](OC(=O)Nc3ccc(F)cc3F)[C@H](OC)C2)CC(=O)[C@H](C)/C=C(\C)[C@@H](OC(=O)Nc2ccc(F)cc2F)[C@@H](OC)C(=O)[C@H](C)C[C@H](C)/C=C/C=C/C=C/1C [Example 10, Rapamycin-31,42-diester with (2,4-difluorophenyl)carbamic acid] | – | – | > 1000 nM | – |
| CO[C@H]1C[C@@H]2CC[C@@H](C)[C@@](O)(O2)C(=O)C(=O)N2CCCC[C@H]2C(=O)O[C@H]([C@H](C)C[C@@H]2CC[C@@H](OC(=O)Nc3ccccc3)[C@H](OC)C2)CC(=O)[C@H](C)/C=C(\C)[C@@H](OC(=O)Nc2ccccc2)[C@@H](OC)C(=O)[C@H](C)C[C@H](C)/C=C/C=C/C=C/1C [Example 11, Rapamycin-31,42-diester with phenylcarbamic acid] | – | – | > 1000 nM | – |
| CO[C@H]1C[C@@H]2CC[C@@H](C)[C@@](O)(O2)C(=O)C(=O)N2CCCC[C@H]2C(=O)O[C@H]([C@H](C)C[C@@H]2CC[C@@H](OC(=O)Nc3ccc(F)cc3)[C@H](OC)C2)CC(=O)[C@H](C)/C=C(\C)[C@@H](OC(=O)Nc2ccc(F)cc2)[C@@H](OC)C(=O)[C@H](C)C[C@H](C)/C=C/C=C/C=C/1C [Example 12, Rapamycin-31,42-diester with (4-fluorophenyl)carbamic acid] | – | – | > 1000 nM | – |
| CO[C@H]1C[C@@H]2CC[C@@H](C)[C@@](O)(O2)C(=O)C(=O)N2CCCC[C@H]2C(=O)O[C@H]([C@H](C)C[C@@H]2CC[C@@H](O[Si](C)(C)C(C)(C)C)[C@H](OC)C2)CC(=O)[C@H](C)/C=C(\C)[C@@H](OC(=O)Nc2ccc(F)cc2F)[C@@H](OC)C(=O)[C@H](C)C[C@H](C)/C=C/C=C/C=C/1C [Example 14, Rapamycin-42-tert-butyldimethylsilyl ether-31-ester with (2,4-difluorophenyl)carbamic acid] | – | – | – | IC50 ([3]; 72 h): > 1000 nM |
| CO[C@H]1C[C@@H]2CC[C@@H](C)[C@@](O)(O2)C(=O)C(=O)N2CCCC[C@H]2C(=O)O[C@H]([C@H](C)C[C@@H]2CC[C@@H](O)[C@H](OC)C2)CC(=O)[C@H](C)/C=C(\C)[C@@H](OC(=O)Nc2ccc(F)cc2F)[C@@H](OC)C(=O)[C@H](C)C[C@H](C)/C=C/C=C/C=C/1C [Example 15, Rapamycin-31-ester with (2,4-difluorophenyl)carbamic acid] | – | – | > 1000 nM | – |
| C=CC[C@@H]1/C=C(\C)C[C@H](C)C[C@H](OC)[C@H]2O[C@@](O)(C(=O)C(=O)N3CCCC[C@H]3C(=O)O[C@H](/C(C)=C/[C@@H]3CC[C@@H](O)[C@H](OC)C3)[C@H](C)[C@@H](O)CC1=O)[C@H](C)C[C@@H]2OC [FK-506] | – | – | – | immunosuppressive effects [4]: effective as immunosuppressive agents |
| CO[C@H]1C[C@@H]2CC[C@@H](C)[C@@](O)(O2)C(=O)C(=O)N2CCCC[C@H]2C(=O)O[C@H]([C@H](C)C[C@@H]2CC[C@@H](O)[C@H](OC)C2)CC(=O)[C@H](C)/C=C(\C)[C@@H](O)[C@@H](OC)C(=O)[C@H](C)C[C@H](C)/C=C/C=C/C=C/1C [Rapamycin] | 1.00 ratio | 12.0 ± 1.7 days | – | percent suppression (PLN) ([1]; 6 mg/kg, p.o., vs non-drug treated animals as allogenic control): 86%; effect in experimental allergic encephalomyelitis model [5]: effective in the experimental allergic encephalomyelitis model; inhibition of formation of IgE-like antibodies (IgE-like antibodies): effectively inhibited the formation of IgE-like antibodies; immunosuppressive effects [4]: immunosuppressive effects; IC50 ([3]; 72 h): 3.2 to 9.4 nM |
